# Source: paper PMC3481155, “AhR activation underlies the CYP1A autoinduction by A-998679 in rats” (Frontiers in Genetics, 2012)
# Assays:
# Mrp2 = Mrp2 expression in rat small intestine; type: in vivo; conditions: treated rats; data not shown
# Description: All animal experiments were conducted in accordance with the Guiding Principles in the Use of Animals in Toxicology (http://www.toxicology.org/ai/air/air6.asp) and were approved by Abbott's Institutional Animal Care and Use Committee (IACUC). Male Sprague-Dawley rats [Crl:CD®(SD)IGS BR], weighing ~250 g at study initiation were obtained from Charles River Laboratories, Inc. (Wilmington, MA). Rats were housed singly in ventilated, stainless steel, wire-bottom hanging cages and fed non-certified Rodent Chow (Harlan Labs, Madison, WI), and water ad libitum and acclimated for at least 5 days after arrival. […] Serum clinical chemistry parameters were quantified using an Aeroset Clinical Chemistry Analyzer (Abbott Laboratories, Abbott Park, IL) and included alanine amino transferase (ALT), aspartate amino transferase (AST), gamma glutamyltransferase (GGT), and alkaline phosphatase (ALP) activities.
# Frozen liver or jejunum were immediately added to 4 ml of TRIzol reagent (Invitrogen Life Technologies) and homogenized using a Polytron 300D homogenizer (Brinkman Instruments, Westbury, NY). […] Nucleic acid concentration was determined by OD 260 nm (Smart-Spec, Bio-Rad Laboratories, Hercules, CA), and RNA integrity was evaluated using an Agilent 2100 bioanalyzer (Agilent Technologies, Foster City, CA). […]
# rat Cyp 2E1 = target: T1, rat Cyp 2E1 (Rattus norvegicus, UniProt P05182); assay: Recombinant rat Cyp phenotype profiling, 2E1; type: in vitro ADME; conditions: 60 min
# T1 construct: purchased BD Gentest; host or cells: baculovirus infected insect cells
# T1 sequence (P05182 whole entry): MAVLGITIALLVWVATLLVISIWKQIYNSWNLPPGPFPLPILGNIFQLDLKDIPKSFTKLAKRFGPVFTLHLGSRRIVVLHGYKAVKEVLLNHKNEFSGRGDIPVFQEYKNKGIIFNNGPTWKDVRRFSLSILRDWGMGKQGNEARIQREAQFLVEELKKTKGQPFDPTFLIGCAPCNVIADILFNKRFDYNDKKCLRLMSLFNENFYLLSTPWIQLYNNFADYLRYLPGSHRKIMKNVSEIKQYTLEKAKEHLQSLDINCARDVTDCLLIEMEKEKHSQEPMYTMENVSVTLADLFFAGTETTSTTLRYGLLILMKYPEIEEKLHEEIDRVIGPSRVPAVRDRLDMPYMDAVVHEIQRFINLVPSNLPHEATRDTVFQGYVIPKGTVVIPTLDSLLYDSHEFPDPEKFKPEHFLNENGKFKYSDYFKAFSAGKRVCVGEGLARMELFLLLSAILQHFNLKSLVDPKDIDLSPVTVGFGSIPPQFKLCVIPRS
# Description: (§1) Identification of the drug metabolizing enzymes (DMEs) of A-998679 was studied in cDNA expressed recombinant enzymes prepared from baculovirus infected insect cells over-expressing rat Cyp isoforms (BD Gentest, Woburn, MA) as listed in Table 2. Incubations were conducted in duplicate using Supersomes. The incubation mixture contained 100 pmol/ml of enzymes, except for Cyp1a1 (200 pmol/ml), 0.1 or 0.21 μM of [^3H]A-998679 in 100 mM phosphate buffer (pH 7.4). Reactions were initiated with the addition of NADPH at a final concentration of 1 mM and incubated at 37°C for 60 min. At the end of the incubation period, the incubations were terminated by the addition of acetonitrile/ethanol (50/50, v/v) solution. Insect control samples lacking expressed enzyme were used as negative control. The degree of metabolism of A-998679 was assessed by percent of parent remaining using the radio-HPLC method described below.
# (§2) Radiolabeled components from the above assays were profiled following separation by HPLC with on line radioflow detector. The system consisted of an Agilent 1100 Series quaternary pump and autosampler connected to a Packard 500TR flow scintillation detector. The data were processed using the Radiomatic™ Flo-one® software v3.65. The scintillant (Perkin Elmer FLO-SCINT™ III) flow was maintained at 3 ml/min. […]
# [1] = 5-day rat exploratory toxicology study (liver weight, clinical chemistry, histopathology); type: in vivo; conditions: 5 days
# Description: All animal experiments were conducted in accordance with the Guiding Principles in the Use of Animals in Toxicology (http://www.toxicology.org/ai/air/air6.asp) and were approved by Abbott's Institutional Animal Care and Use Committee (IACUC). Male Sprague-Dawley rats [Crl:CD®(SD)IGS BR], weighing ~250 g at study initiation were obtained from Charles River Laboratories, Inc. (Wilmington, MA). Rats were housed singly in ventilated, stainless steel, wire-bottom hanging cages and fed non-certified Rodent Chow (Harlan Labs, Madison, WI), and water ad libitum and acclimated for at least 5 days after arrival. Rats were randomly assigned to various treatment groups (3 rats/group) and were dosed once daily by oral gavage with vehicle (0.2% hydroxypropylmethylcellulose at a dose volume of 10 ml/kg) or with 30, 100, or 200 mg/kg of A-998679. All rats were fasted overnight after their last dose, weighed and sacrificed under isoflurane anesthesia. For histopathological evaluation, liver, heart, kidney, spleen, bone (sternum) with marrow, gastrointestinal tract (duodenum with pancreas, jejunum, ileum, cecum, and colon), thymus, and lung were fixed in formalin, routinely processed, and embedded in paraffin. Paraffin sections (4 μm) were stained with hematoxylin and eosin. Liver and small intestine (jejunum) were also flash frozen in liquid nitrogen and stored at −80°C until processing for gene expression profiling. Serum clinical chemistry parameters were quantified using an Aeroset Clinical Chemistry Analyzer (Abbott Laboratories, Abbott Park, IL) and included alanine amino transferase (ALT), aspartate amino transferase (AST), gamma glutamyltransferase (GGT), and alkaline phosphatase (ALP) activities.
# rat Cyp2c11 = target: T2, rat Cyp2c11 (Rattus norvegicus, UniProt P08683); assay: Recombinant rat Cyp phenotype profiling, 2C11; type: in vitro ADME; conditions: 60 min
# T2 construct: purchased BD Gentest; host or cells: baculovirus infected insect cells
# T2 sequence (P08683 whole entry): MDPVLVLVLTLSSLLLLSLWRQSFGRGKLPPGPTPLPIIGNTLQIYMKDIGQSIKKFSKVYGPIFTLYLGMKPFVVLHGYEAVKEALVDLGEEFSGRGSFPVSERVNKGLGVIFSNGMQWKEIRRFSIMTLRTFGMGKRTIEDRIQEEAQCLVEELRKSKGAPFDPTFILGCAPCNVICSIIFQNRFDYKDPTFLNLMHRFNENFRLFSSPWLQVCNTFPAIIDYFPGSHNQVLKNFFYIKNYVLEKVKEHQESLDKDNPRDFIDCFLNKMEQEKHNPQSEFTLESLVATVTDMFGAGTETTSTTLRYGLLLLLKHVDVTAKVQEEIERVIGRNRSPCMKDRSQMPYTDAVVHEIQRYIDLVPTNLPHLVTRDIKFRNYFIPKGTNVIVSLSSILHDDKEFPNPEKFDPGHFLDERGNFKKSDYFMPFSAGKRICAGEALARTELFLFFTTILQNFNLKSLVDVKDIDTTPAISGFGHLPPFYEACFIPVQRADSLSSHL
# Description: as §1, §2
structure (smiles),measurement,setting,value
"N#Cc1cccc(-c2noc(-c3cccnc3)n2)c1 [A-998679, 3-(5-pyridin-3-yl-1,2,4-oxadiazol-3-yl) benzonitrile]",expression of Mrp2 in small intestine,Mrp2,increased expression
same,% parent remaining,"rat Cyp 2E1; recombinant rat Cyp 2E1, 0.10 μM",95.5%
same,% parent remaining,"rat Cyp 2E1; recombinant rat Cyp 2E1, 0.21 μM",91.9%
same,increase in relative liver weight,[1]; 200 mg/kg/day,~ 25%
same,clinical chemistry parameters,[1]; 30-200 mg/kg/day,No significant changes
same,histopathology,[1]; 30-200 mg/kg/day,No significant changes
same,change in relative liver weight,[1]; lower doses (30 and 100 mg/kg/day),no change
same,% parent remaining,"rat Cyp2c11; recombinant rat Cyp 2C11, 0.10 μM",78.1%
same,% parent remaining,"rat Cyp2c11; recombinant rat Cyp 2C11, 0.21 μM",28.8%
